Test results published in patent US20250275540A1, “USE OF PROTOPORPHYRINOGEN OXIDASE” (BEIJING DABEINONG BIOTECHNOLOGY CO., LTD., priority 2022, published 2025).

Test system: transgenic soybean plants
Test: Detection of the herbicide tolerance of the transgenic soybean plants
Format: in vivo
Settings: for The grade of pesticide damage/plant: 0 / The grade of pesticide damage/plant: 1 / The grade of pesticide damage/plant: 2 / The grade of pesticide damage/plant: 3: 7 DAT
[1] = genotype Control vector, 360 g ai/ha
[2] = genotype Control vector, 720 g ai/ha
[3] = genotype PPO-AP-01, 360 g ai/ha
[4] = genotype PPO-AP-01, 720 g ai/ha
[5] = genotype PPO-EC-01, 360 g ai/ha
[6] = genotype PPO-EC-01, 720 g ai/ha

**Q.** `CCOc1cc(Oc2ccc(C(F)(F)F)cc2Cl)ccc1[N+](=O)[O-]` [oxyfluorfen, 2-chloro-1-(3-ethoxy-4-nitrophenoxy)-4-trifluoromethylbenzene] was tested. Which “The grade of pesticide damage/plant: 0” value (genotype CK, 360 g ai/ha) did it give?
**A.** 0 plant

**Q.** What about the “The grade of pesticide damage/plant: 1” value (genotype CK, 360 g ai/ha) of the same compound?
**A.** 0 plant

**Q.** And the “The grade of pesticide damage/plant: 2” value (genotype CK, 360 g ai/ha)?
**A.** 0 plant

**Q.** And the “The grade of pesticide damage/plant: 3” value (genotype CK, 360 g ai/ha)?
**A.** 16 plant

**Q.** What about the “The grade of pesticide damage/plant: 0” value (genotype CK, 720 g ai/ha) of the same compound?
**A.** 0 plant

**Q.** And the “The grade of pesticide damage/plant: 1” value (genotype CK, 720 g ai/ha)?
**A.** 0 plant

**Q.** What about the “The grade of pesticide damage/plant: 2” value (genotype CK, 720 g ai/ha) of the same compound?
**A.** 0 plant

**Q.** And the “The grade of pesticide damage/plant: 3” value (genotype CK, 720 g ai/ha)?
**A.** 16 plant

**Q.** What about the “The grade of pesticide damage/plant: 0” value [1] of the same compound?
**A.** 0 plant

**Q.** What about the “The grade of pesticide damage/plant: 1” value [1] of the same compound?
**A.** 0 plant

**Q.** What about the “The grade of pesticide damage/plant: 2” value [1] of the same compound?
**A.** 0 plant

**Q.** And the “The grade of pesticide damage/plant: 3” value [1]?
**A.** 16 plant

**Q.** What about the “The grade of pesticide damage/plant: 0” value [2] of the same compound?
**A.** 0 plant

**Q.** What about the “The grade of pesticide damage/plant: 1” value [2] of the same compound?
**A.** 0 plant

**Q.** What about the “The grade of pesticide damage/plant: 2” value [2] of the same compound?
**A.** 0 plant

**Q.** And the “The grade of pesticide damage/plant: 3” value [2]?
**A.** 16 plant

**Q.** What about the “The grade of pesticide damage/plant: 0” value [3] of the same compound?
**A.** 0 plant

**Q.** And the “The grade of pesticide damage/plant: 1” value [3]?
**A.** 0 plant

**Q.** And the “The grade of pesticide damage/plant: 2” value [3]?
**A.** 8 plant

**Q.** And the “The grade of pesticide damage/plant: 3” value [3]?
**A.** 8 plant

**Q.** What about the “The grade of pesticide damage/plant: 0” value [4] of the same compound?
**A.** 0 plant

**Q.** And the “The grade of pesticide damage/plant: 1” value [4]?
**A.** 0 plant

**Q.** And the “The grade of pesticide damage/plant: 2” value [4]?
**A.** 0 plant

**Q.** And the “The grade of pesticide damage/plant: 3” value [4]?
**A.** 16 plant

**Q.** And the “tolerance to the herbicide (in words)” value (genotype PPO-AP-01, four-fold field concentration)?
**A.** no tolerance

**Q.** And the “share of the plants that exhibited no tolerance” value (genotype PPO-AP-01, two-fold field concentration)?
**A.** 50%

**Q.** What about the “The grade of pesticide damage/plant: 0” value [5] of the same compound?
**A.** 16 plant

**Q.** And the “The grade of pesticide damage/plant: 1” value [5]?
**A.** 0 plant

**Q.** What about the “The grade of pesticide damage/plant: 2” value [5] of the same compound?
**A.** 0 plant

**Q.** What about the “The grade of pesticide damage/plant: 3” value [5] of the same compound?
**A.** 0 plant

**Q.** And the “The grade of pesticide damage/plant: 0” value [6]?
**A.** 13 plant

**Q.** And the “The grade of pesticide damage/plant: 1” value [6]?
**A.** 3 plant

**Q.** And the “The grade of pesticide damage/plant: 2” value [6]?
**A.** 0 plant

**Q.** What about the “The grade of pesticide damage/plant: 3” value [6] of the same compound?
**A.** 0 plant

**Q.** What about the “The grade of pesticide damage/plant: 0” value (genotype PPOA-01, 360 g ai/ha) of the same compound?
**A.** 16 plant

**Q.** And the “The grade of pesticide damage/plant: 1” value (genotype PPOA-01, 360 g ai/ha)?
**A.** 0 plant

**Q.** And the “The grade of pesticide damage/plant: 2” value (genotype PPOA-01, 360 g ai/ha)?
**A.** 0 plant

**Q.** And the “The grade of pesticide damage/plant: 3” value (genotype PPOA-01, 360 g ai/ha)?
**A.** 0 plant

**Q.** And the “The grade of pesticide damage/plant: 0” value (genotype PPOA-01, 720 g ai/ha)?
**A.** 15 plant

**Q.** And the “The grade of pesticide damage/plant: 1” value (genotype PPOA-01, 720 g ai/ha)?
**A.** 1 plant

**Q.** What about the “The grade of pesticide damage/plant: 2” value (genotype PPOA-01, 720 g ai/ha) of the same compound?
**A.** 0 plant

**Q.** What about the “The grade of pesticide damage/plant: 3” value (genotype PPOA-01, 720 g ai/ha) of the same compound?
**A.** 0 plant

**Q.** What about the “The grade of pesticide damage/plant: 0” value (genotype PPOB-01, 360 g ai/ha) of the same compound?
**A.** 16 plant

**Q.** What about the “The grade of pesticide damage/plant: 1” value (genotype PPOB-01, 360 g ai/ha) of the same compound?
**A.** 0 plant

**Q.** And the “The grade of pesticide damage/plant: 2” value (genotype PPOB-01, 360 g ai/ha)?
**A.** 0 plant

**Q.** What about the “The grade of pesticide damage/plant: 3” value (genotype PPOB-01, 360 g ai/ha) of the same compound?
**A.** 0 plant

**Q.** And the “The grade of pesticide damage/plant: 0” value (genotype PPOB-01, 720 g ai/ha)?
**A.** 16 plant

**Q.** And the “The grade of pesticide damage/plant: 1” value (genotype PPOB-01, 720 g ai/ha)?
**A.** 0 plant

**Q.** What about the “The grade of pesticide damage/plant: 2” value (genotype PPOB-01, 720 g ai/ha) of the same compound?
**A.** 0 plant

**Q.** And the “The grade of pesticide damage/plant: 3” value (genotype PPOB-01, 720 g ai/ha)?
**A.** 0 plant

**Q.** And the “The grade of pesticide damage/plant: 0” value (genotype PPOC-01, 360 g ai/ha)?
**A.** 16 plant

**Q.** What about the “The grade of pesticide damage/plant: 1” value (genotype PPOC-01, 360 g ai/ha) of the same compound?
**A.** 0 plant

**Q.** And the “The grade of pesticide damage/plant: 2” value (genotype PPOC-01, 360 g ai/ha)?
**A.** 0 plant

**Q.** What about the “The grade of pesticide damage/plant: 3” value (genotype PPOC-01, 360 g ai/ha) of the same compound?
**A.** 0 plant

**Q.** And the “The grade of pesticide damage/plant: 0” value (genotype PPOC-01, 720 g ai/ha)?
**A.** 16 plant

**Q.** What about the “The grade of pesticide damage/plant: 1” value (genotype PPOC-01, 720 g ai/ha) of the same compound?
**A.** 0 plant

**Q.** What about the “The grade of pesticide damage/plant: 2” value (genotype PPOC-01, 720 g ai/ha) of the same compound?
**A.** 0 plant

**Q.** And the “The grade of pesticide damage/plant: 3” value (genotype PPOC-01, 720 g ai/ha)?
**A.** 0 plant

**Q.** What about the “The grade of pesticide damage/plant: 0” value (genotype PPOD-01, 360 g ai/ha) of the same compound?
**A.** 16 plant

**Q.** And the “The grade of pesticide damage/plant: 1” value (genotype PPOD-01, 360 g ai/ha)?
**A.** 0 plant

**Q.** What about the “The grade of pesticide damage/plant: 2” value (genotype PPOD-01, 360 g ai/ha) of the same compound?
**A.** 0 plant

**Q.** What about the “The grade of pesticide damage/plant: 3” value (genotype PPOD-01, 360 g ai/ha) of the same compound?
**A.** 0 plant

**Q.** And the “The grade of pesticide damage/plant: 0” value (genotype PPOD-01, 720 g ai/ha)?
**A.** 16 plant

**Q.** And the “The grade of pesticide damage/plant: 1” value (genotype PPOD-01, 720 g ai/ha)?
**A.** 0 plant

**Q.** And the “The grade of pesticide damage/plant: 2” value (genotype PPOD-01, 720 g ai/ha)?
**A.** 0 plant

**Q.** What about the “The grade of pesticide damage/plant: 3” value (genotype PPOD-01, 720 g ai/ha) of the same compound?
**A.** 0 plant

**Q.** And the “The grade of pesticide damage/plant: 0” value (genotype PPOE-01, 360 g ai/ha)?
**A.** 16 plant

**Q.** And the “The grade of pesticide damage/plant: 1” value (genotype PPOE-01, 360 g ai/ha)?
**A.** 0 plant

**Q.** And the “The grade of pesticide damage/plant: 2” value (genotype PPOE-01, 360 g ai/ha)?
**A.** 0 plant

**Q.** What about the “The grade of pesticide damage/plant: 3” value (genotype PPOE-01, 360 g ai/ha) of the same compound?
**A.** 0 plant

**Q.** And the “The grade of pesticide damage/plant: 0” value (genotype PPOE-01, 720 g ai/ha)?
**A.** 14 plant

**Q.** What about the “The grade of pesticide damage/plant: 1” value (genotype PPOE-01, 720 g ai/ha) of the same compound?
**A.** 2 plant

**Q.** And the “The grade of pesticide damage/plant: 2” value (genotype PPOE-01, 720 g ai/ha)?
**A.** 0 plant

**Q.** What about the “The grade of pesticide damage/plant: 3” value (genotype PPOE-01, 720 g ai/ha) of the same compound?
**A.** 0 plant

**Q.** What about the “The grade of pesticide damage/plant: 0” value (genotype PPOF-01, 360 g ai/ha) of the same compound?
**A.** 16 plant

**Q.** And the “The grade of pesticide damage/plant: 1” value (genotype PPOF-01, 360 g ai/ha)?
**A.** 0 plant

**Q.** And the “The grade of pesticide damage/plant: 2” value (genotype PPOF-01, 360 g ai/ha)?
**A.** 0 plant

**Q.** What about the “The grade of pesticide damage/plant: 3” value (genotype PPOF-01, 360 g ai/ha) of the same compound?
**A.** 0 plant

**Q.** And the “The grade of pesticide damage/plant: 0” value (genotype PPOF-01, 720 g ai/ha)?
**A.** 16 plant

**Q.** What about the “The grade of pesticide damage/plant: 1” value (genotype PPOF-01, 720 g ai/ha) of the same compound?
**A.** 0 plant

**Q.** And the “The grade of pesticide damage/plant: 2” value (genotype PPOF-01, 720 g ai/ha)?
**A.** 0 plant

**Q.** What about the “The grade of pesticide damage/plant: 3” value (genotype PPOF-01, 720 g ai/ha) of the same compound?
**A.** 0 plant

**Q.** And the “tolerance to the herbicide (in words)” value (genotypes PPOA-01 to PPOF-01 and PPO-EC-01, four-fold field concentration)?
**A.** high-resistant tolerance

**Q.** What about the “tolerance to the herbicide (in words)” value (genotypes PPOA-01 to PPOF-01 and PPO-EC-01, two-fold field concentration) of the same compound?
**A.** high-resistant tolerance
